Read-outs that look alike come from different tables or passages of the source.
Experiments:
NR1/NR2B NMDA receptors [1] = biological target: T1, NR1/NR2B NMDA receptors (Rattus norvegicus, UniProt P35439+Q00960); experiment: Patch-clamp inhibition of glutamate-elicited currents in HEK293 cells transfected with NR1-1a/NR2B; type: cell-based; settings: for IC50: calculated from relative inhibition with Hill's coefficient 1.2; for IC50 / Relative inhibition effect (%): 5 cells; for Relative inhibition effect (%): 1 mmol·l^−1 glutamic acid
T1 construct: expressed in transfected cells; host or cells: HEK293 cells (ATCC CRL1573)
Protocol: The membrane potentials were maintained at −60 mV or +60 mV. Patch-clamp technique was used to record the currents from cultivated HEK293 cells with transfected NR1/NR2B NMDA receptors. Relative inhibition elicited by the compound from the example 2 was calculated from the formula (1−a/b)*100(%).
Degree of activated NMDA receptor inhibition by steroid cationic compounds was measured in vitro electrophysiologically on cultivated HEK293 cells (Human Embryonic Kidney 293 cells) 24-48 h after the transfection with DNA plasmids, coding NR1-1a and NR2B subunit of NMDA receptor. Transfected cells were identified by means of fluorescent green protein (GFP) fluorescence. Its genus was transfected together with the both receptor subunit genes.
Steroid-containing solutions were prepared from fresh solution (20 mmol·l^−1, of steroid dissolved in dimethyl-sulfoxide, DMSO), which was added to the extracellular solution containing 1 mmol·l^−1 glutamic acid and 10 μmol·l^−1 of glycine. Same concentrations of DMSO were added to all other extracellular solutions.
Current responses produced by extracellular application of glutamic acid solution (1 mmol·l^−1) were measured from the whole cell by patch-clamp technique, which is used for the study of transport of charged particles through model and also natural biological membranes. The currents were measured at membrane potential maintained at −60 mV and +60 mV.
HEK293 cells (American Type Culture Collection, ATTC No. CRL1573, Rockville, Md.) were cultivated in Opti-MEM® I media (Invitrogen) with addition of 5% fetal bovine serum at 37° C. and transfected with NR1-1a/NR2B/GFP plasmids, as described in the scientific literature (Cais et al., 2008). Same amounts (0.3 μg) of cDNA coding NR1, NR2 and GFP (green fluorescent protein) (pQBI 25, Takara, Japan) were mixed with 0.9 μl of Matra-A Reagent (IBA, Göttingen, Germany) and added to confluent HEK293 cells cultivated in v 24-pit cultivating plate. After trypsination, the cells were re-suspended in Opti-MEM® I containing 1% fetal bovine serum. Subsequently, 20 mmol·l^−1 MgCl2, 1 mmol D,L-2-amino-5-phosphonopentanoic acid, 3 mmol·l^−1 kynurenic acid was added to the mixture and cells were inoculated on the polylysine-coated glass plates having 25 mm in diameter. The following genes coding NMDA receptor subunits were used for transfection: NR1-1a (GenBank accession no. U08261) and NR2B (GenBank accession no. M91562).
HEK293 Cultured cells were used for electrophysiological investigations with a latency of 16-40 h after transfection. Whole-cell currents were measured by patch-clamp amplifier (Axopatch 1D; Axon Instruments, Inc. Foster City, USA) after capacitance and serial resistance (<10 MΩ) compensation to 80-90%. Agonist-induced responses were filtered to 1 kHz (8-pole Bessel filter; Frequency Devices, Haverhill, USA), digitized with sampling frequency of 5 kHz and analyzed by pClamp version 9 software (Axon Instruments, USA). Micropipettes made of borosilicate glass were filled with intracellular solution, containing 125 mmol·l^−1 D-glukonic acid, 15 mmol·l^−1 cesium chloride, 5 mmol·l^−1 EGTA, 10 mmol·l^−1 HEPES buffer, 3 mmol·l^−1 magnesium chloride, 0.5 mmol·l^−1 calcium chloride and 2 mmol·l^−1 magnesium-salt of ATP (pH adjusted to 7.2 by cesium hydroxide solution). Extracellular solution (ECS) contained 160 mmol·l^−1 sodium chloride, 2.5 mmol·l^−1 potassium chloride, 10 mmol·l^−1 HEPES, 10 mmol·l^−1 glucose, 0.2 mmol·l^−1 EDTA a 0.7 mmol·l^−1 calcium chloride (pH adjusted to 7.3 by sodium hydroxide solution). Glycine was added to both testing and control solution.

NR1/NR2B NMDA receptors [2] = biological target: T1, NR1/NR2B NMDA receptors; settings: pregnanolone sulfate 100 μmol·l^−1, recombinant NR1/NR2B receptors, n=5, Petrovic et al., 2005, cited from earlier work
[3] = tested on: NMDA receptors on hipocampal neurones; settings: pregnanolone sulfate 100 μmol·l^−1; responses elicited by NMDA; −60 mV; n=5; Petrovic et al., 2005; cited from earlier work
mice strain B6 = experiment: Spontaneous locomotor activity in the open-field test; type: in vivo; settings: 10 mg/kg subcutaneously in cyclodextrin, 60 min session
Protocol: Animals were tracked with iTrack (Biosignal group, USA) and total path during this session was evaluated. The pregnanolone argininate was applied subcutaneously (dissolved in cyclodextrin) prior to behavioral observations at doses 10 mg/kg; control animals were injected with saline and cyclodextrin.

Long-Evans male rats = experiment: Carousel maze (active allothetic place avoidance, AAPA): locomotion and cognitive function; type: in vivo
Protocol: Effect of pregnanolone argininate and nitrate and action of dizocilpine (a non-competitive antagonist of NMDA receptors; standardly used as positive control and referred hereafter as dizocilpine) on the behavior of rats in Carousel maze (active allothetic place avoidance (AAPA)), a spatial task requiring spatial orientation and cognitive functions
The effect of compounds on cognitive behaviors and locomotion was assessed using Carousel maze (active allothetic place avoidance (AAPA) task), which requires intact hippocampi and ability of animals to navigate in space using distinct reference frames (spatial navigation and “cognitive coordination”) (Wesierska et al., 2005) and it also allows measuring changes in the accompanying locomotor activity. AAPA task training involves animals trained to move over a slowly rotating uniform circular arena, on which a prohibited sector is defined, entering which is punished by a mild footshock. A shock sector and its position can be determined solely by its relationship to distal orienting cues in the room (Stuchlik et al., 2008).
This task is highly dependent upon hippocampal formation, with unilateral reversible ablation of this structure with TTX leading to avoidance deficit (Cimadevilla et al., 2001). Animals solving this task should walk in a direction opposite to arena rotation; otherwise it would be repeatedly brought to a fixed sector by arena rotation. We conducted 4 acquisition session of AAPA task, during which the sector location was always reinforced and remained stable throughout the training. Each session lasted 20 min.
The effect was tested on 2-month-old Long-Evans male rats. Control animals obtained cyklodextrine (s.c.), experimental groups received subcutaneous (s.c.) injections of the compound from example 2 at doses 1 mg/kg (dissolved in cyclodextrin). Intraperitonal application of dizocilpine (a non-competitive NMDA receptor antagonist; showing significant neuroprotective activity but exerting cognition-disturbing and psychotomimetic effects) was used as a positive control. Dizocilpine was applied at doses 0.15 mg/kg. It is worth noting that dizocilpine (albeit its experimental neuroprotective activity) is often used to model schizophrenia-like behaviors in […] and it has been repeatedly shown to exert a dose-dependent learning deficit and hyperlocomotion.
Locomotor activity of animals was assessed in the AAPA as total distance traveled in the coordinate frame of the arena (without passive rotation) in each 20-min session.
Another parameter, which can be measured and which brings a spatial aspect to behavioral analysis, is number of entrances into prohibited sector (occasionally termed “number of errors”).

male mice strain B6 = experiment: Anesthetic effect after i.p. injection; type: in vivo; settings: 100 mg/kg i.p. in β-cyclodextrine
Protocol: Anesthetic effect of 3α5β pregnanolon argininate was tested on 2-month-old male mice strain B6. Animals were randomly assigned to 3 groups per 7 animals each. The first group was injected i.p. with saline, the second group received i.p. cyclodextrine, the third group obtained received the pregnanolon argininate at a dose 100 mg/kg (dissolved in β-cyclodextrine).

[4] = dizocilpine 0.15 mg/kg intraperitoneal, positive control

T1 sequence (Q00960 27-1482, other chains not shown): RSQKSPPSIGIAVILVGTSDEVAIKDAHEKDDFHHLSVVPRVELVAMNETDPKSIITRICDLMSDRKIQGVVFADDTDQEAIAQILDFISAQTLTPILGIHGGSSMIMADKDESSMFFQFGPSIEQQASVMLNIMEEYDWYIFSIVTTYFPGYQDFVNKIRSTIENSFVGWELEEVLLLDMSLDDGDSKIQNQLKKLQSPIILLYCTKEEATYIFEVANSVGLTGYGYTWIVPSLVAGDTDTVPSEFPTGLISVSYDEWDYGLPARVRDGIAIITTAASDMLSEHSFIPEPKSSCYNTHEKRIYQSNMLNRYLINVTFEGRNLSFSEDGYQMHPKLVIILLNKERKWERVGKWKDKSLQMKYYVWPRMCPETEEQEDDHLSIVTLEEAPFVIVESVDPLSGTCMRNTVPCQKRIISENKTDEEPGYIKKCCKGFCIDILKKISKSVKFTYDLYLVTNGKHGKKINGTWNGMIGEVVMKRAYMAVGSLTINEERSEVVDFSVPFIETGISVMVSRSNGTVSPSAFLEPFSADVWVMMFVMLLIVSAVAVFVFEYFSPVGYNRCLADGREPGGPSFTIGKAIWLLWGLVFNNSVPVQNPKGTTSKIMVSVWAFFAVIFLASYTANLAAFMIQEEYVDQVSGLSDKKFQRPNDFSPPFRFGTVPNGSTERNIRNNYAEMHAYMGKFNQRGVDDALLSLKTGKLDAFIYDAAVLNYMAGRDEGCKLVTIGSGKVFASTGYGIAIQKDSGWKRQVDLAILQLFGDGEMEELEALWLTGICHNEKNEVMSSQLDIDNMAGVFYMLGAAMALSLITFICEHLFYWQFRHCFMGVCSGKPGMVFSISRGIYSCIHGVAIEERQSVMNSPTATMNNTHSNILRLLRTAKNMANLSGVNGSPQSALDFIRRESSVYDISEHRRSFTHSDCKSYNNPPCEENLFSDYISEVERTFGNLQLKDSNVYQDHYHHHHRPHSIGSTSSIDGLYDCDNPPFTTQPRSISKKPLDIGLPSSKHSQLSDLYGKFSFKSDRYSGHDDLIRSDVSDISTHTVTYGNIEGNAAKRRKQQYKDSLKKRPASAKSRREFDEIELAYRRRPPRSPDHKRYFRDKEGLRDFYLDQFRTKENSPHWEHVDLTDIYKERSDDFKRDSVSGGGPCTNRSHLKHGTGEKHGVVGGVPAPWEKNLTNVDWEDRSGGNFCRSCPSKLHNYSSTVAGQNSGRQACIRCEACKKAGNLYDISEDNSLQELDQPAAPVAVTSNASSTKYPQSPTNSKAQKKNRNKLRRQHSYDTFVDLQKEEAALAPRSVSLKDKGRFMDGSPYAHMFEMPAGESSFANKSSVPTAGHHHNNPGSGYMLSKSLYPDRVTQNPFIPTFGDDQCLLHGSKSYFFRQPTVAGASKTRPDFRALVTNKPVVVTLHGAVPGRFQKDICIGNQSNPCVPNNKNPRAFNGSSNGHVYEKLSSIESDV

CC(=O)[C@H]1CC[C@H]2[C@@H]3CC[C@@H]4C[C@H](OC(=O)CCC[N+](C)(C)C)CC[C@]4(C)[C@H]3CC[C@]12C.[Cl-] [Example 6, 20-Oxo-5β-pregnan-3α-yl 4-(trimethylammonium) butanoate chloride]
IC50 (NR1/NR2B NMDA receptors [1]): 5.9 µM | Relative inhibition effect (%) (NR1/NR2B NMDA receptors [1]; steroid 10 μmol·l^−1): 65.4 ± 3.4%

CC(=O)[C@H]1CC[C@H]2[C@@H]3CC[C@@H]4C[C@H](OC(=O)C[N+](C)(C)C)CC[C@]4(C)[C@H]3CC[C@]12C.[Cl-] [Example 8, 20-Oxo-5β-pregnan-3α-yl-2-(trimethylammonium) acetate hydrochloride]
IC50 (NR1/NR2B NMDA receptors [1]): 22.4 µM | Relative inhibition effect (%) (NR1/NR2B NMDA receptors [1]; steroid 30 μmol·l^−1, −60 mV): 57.0 ± 9.6%

5β-pregnanolon-3α-yl-sulfate [Pregnanolone sulfate]
IC50 (NR1/NR2B NMDA receptors [1]): 55 µM | Relative inhibition effect (%) (NR1/NR2B NMDA receptors [2]; listed as 5β-pregnanolon-3α-yl-sulfate): 67% | Relative inhibition effect (%) (NR1/NR2B NMDA receptors [2]; listed as pregnanolone sulfate): 67.2±8.2% | mean inhibition effect [3]: 71.3±5.0%

CC(=O)C1CCC2C3CC[C@@H]4C[C@H]([N+](C)(C)C)CC[C@]4(C)C3CC[C@]12C.[Cl-] (stereo partly drawn) [Example 10, 3-(Trimethylammonium)-5β-pregnan-20-one chloride]
IC50 (NR1/NR2B NMDA receptors [1]): 107 µM | Relative inhibition effect (%) (NR1/NR2B NMDA receptors [1]; steroid 100 μmol·l^−1, −60 mV): 69.2 ± 9.6% | melting point: 237 to 240 °C (dec.)

CCC(CCC(=O)O[C@@H]1CC[C@@]2(C)[C@H](CC[C@@H]3[C@@H]2CC[C@]2(C)[C@@H](C(C)=O)CC[C@@H]32)C1)[N+](C)(C)C.[Cl-] (stereo partly drawn) [Example 7, 20-Oxo-5β-pregnan-3α-yl 4-(trimethylammonium) hexanoate chloride]
IC50 (NR1/NR2B NMDA receptors [1]): 23.6 µM | Relative inhibition effect (%) (NR1/NR2B NMDA receptors [1]; steroid 100 μmol·l^−1, −60 mV): 85.6 +/− 2.3%

CC(=O)O.CC(=O)O.CC(=O)[C@H]1CC[C@H]2[C@@H]3CC[C@@H]4C[C@H](OC(=O)[C@@H](N)CCCNC(=N)N)CC[C@]4(C)[C@H]3CC[C@]12C [Example 2, 20-Oxo-5β-pregnan-3α-yl L-argininate diacetate salt]
dependence of average inhibition on the maintained membrane potential (NR1/NR2B NMDA receptors [1]; 10 μmol·l^−1, FIG. 1B): independence | reversibility of inhibition of the current response (NR1/NR2B NMDA receptors [1]; 10 μmol·l^−1 applied simultaneously with 1 mmol·l^−1 glutamic acid, −60 mV or +60 mV, FIG. 1A): reversible inhibition | IC50 (NR1/NR2B NMDA receptors [1]): 5.3 µM | Relative inhibition effect (%) (NR1/NR2B NMDA receptors [1]; steroid 10 μmol·l^−1): 69.2 ± 9.6% | spontaneous locomotor activity (total path) (mice strain B6): did not significantly alter | locomotor activity: total distance per session in AAPA (Long-Evans male rats; compound from example 2 1 mg/kg s.c. in cyclodextrin (nitrate dose not given), 20-min session, vs cyclodextrin controls, diacetate salt, 1 mg/kg): no significant effect | locomotor activity: total distance per session in AAPA (Long-Evans male rats; compound from example 2 1 mg/kg s.c. in cyclodextrin (nitrate dose not given), 20-min session, vs cyclodextrin controls, listed as pregnanolone argininate, diacetate salt, 1 mg/kg): failed to exhibit either decrease or increase | number of entrances into shock sector (spatial cognition) (Long-Evans male rats; compound from example 2 1 mg/kg s.c. in cyclodextrin (nitrate dose not given), vs cyclodextrin controls, diacetate salt, 1 mg/kg): no significant effect | number of entrances into shock sector (spatial cognition) (Long-Evans male rats; compound from example 2 1 mg/kg s.c. in cyclodextrin (nitrate dose not given), vs cyclodextrin controls, listed as pregnanolone argininate, diacetate salt, 1 mg/kg): do not caused worsening | time after injection to anesthesia (male mice strain B6): 5 to 20 min | time after injection to decreased locomotor activity (male mice strain B6): 3 to 15 min | time to spontaneous awakening (male mice strain B6): 1 to 3 h

CC(=O)[C@H]1CC[C@H]2[C@@H]3CC[C@@H]4C[C@H](OC(=O)CN(C)C(=N)N)CC[C@]4(C)[C@H]3CC[C@]12C.Cl [Example 5, 20-Oxo-5β-pregnan-3α-yl 2-(methylguanidino) acetate hydrochloride]
IC50 (NR1/NR2B NMDA receptors [1]): 3.3 ± 0.7 µM | Relative inhibition effect (%) (NR1/NR2B NMDA receptors [1]; steroid 10 μmol·l^−1): 79.2 ± 4.2%

C[C@]12N[C@H](Cc3ccccc31)c1ccccc12 [dizocilpine, reference compound]
locomotor activity: total distance per session in AAPA (Long-Evans male rats; [4]): stimulated the locomotor activity | number of entrances into shock sector (spatial cognition) (Long-Evans male rats; [4]): dose-dependently disrupted | number of entrances into shock sector (spatial cognition) (Long-Evans male rats; dizocilpine 0.15 mg/kg intraperitoneal, positive control, listed as MK-801): disrupts
